The supplement of paper PMC10307832

How the values were obtained:
Assay in all cases: relative viability (nuclei count vs DMSO), 5 days (fraction); higher = more cells survive
Bemcentinib + Dasatinib = compound: Nc1nc(Nc2ccc3c(c2)CC[C@@H](N2CCCC2)CC3)nn1-c1cc2c(nn1)-c1ccccc1CCC2 [Bemcentinib] + Cc1nc(Nc2ncc(C(=O)Nc3c(C)cccc3Cl)s2)cc(N2CCN(CCO)CC2)n1 [Dasatinib] (partner 0.075 µM)
In short: (§1)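 Cells from lung cancer lines were seeded into 1536-well plates and, one day later, dosed by pin tool. Treatments were either a single drug or a fixed dose of an anchor drug with five library-drug doses (not always all listed) in √10 steps. After 5 days, nuclei were stained in a one-step fixation (final 0.05% Triton X-100, 1% formaldehyde, 1 ug/ml Hoechst) and counted on 4× images, and relative viability is the treated-to-vehicle nuclei ratio, as the median of duplicate plates.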

Axitinib + Foretinib = compound: CNC(=O)c1ccccc1Sc1ccc2c(/C=C/c3ccccn3)n[nH]c2c1 [Axitinib] + COc1cc2c(Oc3ccc(NC(=O)C4(C(=O)Nc5ccc(F)cc5)CC4)cc3F)ccnc2cc1OCCCN1CCOCC1 [Foretinib] (partner 0.25 µM)
In short: as §1

Axitinib + Pemetrexed = compound: CNC(=O)c1ccccc1Sc1ccc2c(/C=C/c3ccccn3)n[nH]c2c1 [Axitinib] + Nc1nc2[nH]cc(CCc3ccc(C(=O)N[C@@H](CCC(=O)O)C(=O)O)cc3)c2c(=O)[nH]1 [Pemetrexed] (partner 0.2 µM)
In short: as §1

Bemcentinib + Pemetrexed = compound: Nc1nc(Nc2ccc3c(c2)CC[C@@H](N2CCCC2)CC3)nn1-c1cc2c(nn1)-c1ccccc1CCC2 [Bemcentinib] + Nc1nc2[nH]cc(CCc3ccc(C(=O)N[C@@H](CCC(=O)O)C(=O)O)cc3)c2c(=O)[nH]1 [Pemetrexed] (partner 0.2 µM)
In short: as §1

Cell Line	relative viability (Bemcentinib + Dasatinib; first compound 0.04 µM)	relative viability (Bemcentinib + Dasatinib; first compound 0.1265 µM)	relative viability (Bemcentinib + Dasatinib; first compound 0.4 µM)	relative viability (Bemcentinib + Dasatinib; first compound 1.265 µM)	relative viability (Bemcentinib + Dasatinib; first compound 4 µM)	relative viability (Axitinib + Foretinib; first compound 0.005 µM)	relative viability (Axitinib + Foretinib; first compound 0.01581 µM)	relative viability (Axitinib + Foretinib; first compound 0.05 µM)	relative viability (Axitinib + Foretinib; first compound 0.1581 µM)	relative viability (Axitinib + Foretinib; first compound 0.5 µM)	relative viability (Axitinib + Pemetrexed; first compound 0.005 µM)	relative viability (Axitinib + Pemetrexed; first compound 0.01581 µM)	relative viability (Axitinib + Pemetrexed; first compound 0.05 µM)	relative viability (Axitinib + Pemetrexed; first compound 0.1581 µM)	relative viability (Axitinib + Pemetrexed; first compound 0.5 µM)	relative viability (Bemcentinib + Pemetrexed; first compound 0.04 µM)	relative viability (Bemcentinib + Pemetrexed; first compound 0.1265 µM)	relative viability (Bemcentinib + Pemetrexed; first compound 0.4 µM)	relative viability (Bemcentinib + Pemetrexed; first compound 1.265 µM)	relative viability (Bemcentinib + Pemetrexed; first compound 4 µM)
NCI-H358	0.153	0.146	0.148	0.163	0.171	0.701	0.738	0.859	0.695	0.925	0.166	0.154	0.182	0.173	0.181	0.176	0.177	0.166	0.187	0.179
NCI-H441	0.536	0.773	0.862	0.649	0.609	0.989	0.93	0.872	1.13	0.95	0.271	0.305	0.232	0.248	0.265	0.24	0.243	0.267	0.245	0.275
NCI-H460	0.452	0.534	0.562	0.535	0.551	1.01	0.917	0.974	0.995	1.05	0.0553	0.0645	0.0676	0.0593	0.0611	0.0651	0.0562	0.0565	0.0602	0.0631
NCI-H520	0.197	0.194	0.257	0.206	0.23	0.808	0.64	0.706	–	0.829	0.68	0.698	0.74	0.681	0.716	0.65	0.848	0.788	0.686	0.785
NCI-H596	0.454	0.604	0.575	0.593	0.627	0.504	0.861	0.803	0.873	0.818	0.517	0.483	0.676	0.533	0.433	0.477	0.53	0.55	0.478	0.474
NCI-H647	0.169	0.213	0.211	0.186	0.136	1.26	1.16	1.03	1.23	1.56	0.21	0.149	0.2	0.184	0.209	0.175	0.164	0.199	0.156	0.152
NCI-H661	0.77	0.877	0.924	0.832	0.913	1.06	1.01	1.09	1.04	1.12	0.885	0.916	0.902	0.942	0.956	0.906	0.953	0.965	0.899	0.991
NCI-H838	0.221	0.305	0.309	0.254	0.294	1.06	1.11	1.12	0.906	1.13	0.243	0.25	0.247	0.237	0.25	0.229	0.267	0.272	0.257	0.262
NCI-H1355	0.723	0.778	0.829	0.778	0.841	1.03	0.945	1.04	0.956	1.1	1.01	1.03	1.09	1.03	1.01	1.06	1.16	1.13	1.03	1.04
NCI-H1395	0.393	0.392	0.439	0.364	0.396	0.97	1.03	0.982	0.939	0.918	0.962	0.761	0.832	0.683	0.736	–	1.03	0.903	0.797	0.82
NCI-H1437	0.365	0.421	0.416	0.438	0.38	1.3	1.22	1.28	1.13	1.25	0.321	0.325	0.324	0.336	0.324	0.305	0.323	0.322	0.362	0.331
NCI-H1563	0.403	0.429	0.448	0.413	0.444	0.934	0.918	0.884	0.847	0.938	0.844	0.716	0.917	0.729	0.721	0.768	0.716	0.844	0.663	0.772
NCI-H1650	0.344	0.382	0.347	0.346	0.321	1.32	1.12	1.24	1.19	1.31	0.415	0.352	0.361	0.436	0.408	0.327	0.337	0.414	0.391	0.364
NCI-H1651	0.393	0.381	0.484	0.41	0.498	0.879	0.896	0.876	0.878	0.859	0.567	0.586	0.587	0.618	0.657	0.548	0.592	0.646	0.475	0.614
NCI-H1666	0.755	0.781	0.806	0.773	0.781	1	1.03	0.995	1.02	0.935	0.865	0.972	0.899	0.958	0.873	0.884	0.845	0.813	0.885	0.827
NCI-H1734	0.46	0.48	0.512	0.41	0.448	0.928	0.853	0.923	0.944	1.08	0.413	0.432	0.412	0.435	0.429	0.419	0.459	0.398	0.402	0.448

Cell Line	relative viability (Bemcentinib + Dasatinib; first compound 0.04 µM)	relative viability (Bemcentinib + Dasatinib; first compound 0.1265 µM)	relative viability (Bemcentinib + Dasatinib; first compound 0.4 µM)	relative viability (Bemcentinib + Dasatinib; first compound 1.265 µM)	relative viability (Bemcentinib + Dasatinib; first compound 4 µM)	relative viability (Axitinib + Foretinib; first compound 0.005 µM)	relative viability (Axitinib + Foretinib; first compound 0.01581 µM)	relative viability (Axitinib + Foretinib; first compound 0.05 µM)	relative viability (Axitinib + Foretinib; first compound 0.1581 µM)	relative viability (Axitinib + Foretinib; first compound 0.5 µM)	relative viability (Axitinib + Pemetrexed; first compound 0.005 µM)	relative viability (Axitinib + Pemetrexed; first compound 0.01581 µM)	relative viability (Axitinib + Pemetrexed; first compound 0.05 µM)	relative viability (Axitinib + Pemetrexed; first compound 0.1581 µM)	relative viability (Axitinib + Pemetrexed; first compound 0.5 µM)	relative viability (Bemcentinib + Pemetrexed; first compound 0.04 µM)	relative viability (Bemcentinib + Pemetrexed; first compound 0.1265 µM)	relative viability (Bemcentinib + Pemetrexed; first compound 0.4 µM)	relative viability (Bemcentinib + Pemetrexed; first compound 1.265 µM)	relative viability (Bemcentinib + Pemetrexed; first compound 4 µM)
NCI-H1755	0.379	0.511	0.397	0.438	0.41	0.946	0.931	0.788	0.888	0.935	0.438	0.448	0.403	0.509	0.403	0.418	0.498	0.565	0.569	0.455
NCI-H1793	0.305	0.412	0.342	–	0.405	0.851	0.597	0.764	0.65	0.687	1.04	0.568	1.01	0.821	0.791	0.853	1.05	0.933	0.853	0.813
NCI-H1915	0.304	0.302	0.307	0.332	0.331	1.07	1.11	1.08	1.08	1.13	0.497	0.494	0.501	0.522	0.536	0.48	0.533	0.538	0.489	0.443
NCI-H1944	0.206	0.202	0.214	0.204	0.2	0.892	0.881	0.978	0.882	1	0.6	0.583	0.707	0.657	0.652	0.633	0.66	0.649	0.589	0.634
NCI-H1975	0.344	0.424	0.432	0.386	0.354	1.05	0.944	0.938	0.997	1.03	0.294	0.293	0.272	0.269	0.279	0.307	0.362	0.301	0.283	0.299
NCI-H1993	0.571	0.563	0.625	0.552	0.577	0.771	0.731	0.823	0.956	0.845	0.606	0.601	0.604	0.628	0.541	0.566	0.59	0.623	0.584	0.62
NCI-H2009	0.24	0.303	0.276	0.272	0.247	1.21	1.23	1.23	1.27	1.08	0.997	1.06	1	1.1	1.05	1.03	1.07	1.12	1.07	1.01
NCI-H2023	0.56	0.727	0.606	0.677	0.64	0.906	0.943	0.911	0.923	0.923	0.237	0.232	0.177	0.252	0.291	0.225	0.287	0.217	0.213	0.198
NCI-H2085	0.224	0.195	0.258	0.256	0.294	0.979	1.05	0.884	0.9	1.07	0.903	0.876	0.905	0.806	0.808	0.857	0.945	0.861	0.876	0.714
NCI-H2087	0.797	1.02	0.949	0.901	0.929	1.09	0.97	0.937	1.15	1.21	0.766	0.593	0.597	0.7	0.728	0.772	0.798	0.64	0.611	0.685
NCI-H2126	0.559	0.67	0.646	0.71	0.699	1.27	0.967	1.09	1.21	1.26	0.679	0.708	0.689	0.75	0.737	0.732	0.671	0.713	0.646	0.831
NCI-H2170	0.485	0.664	0.603	0.477	0.589	1.02	0.716	1.03	0.939	1.01	0.281	0.252	0.261	0.27	0.27	0.264	0.278	0.283	0.244	0.264
NCI-H2228	0.14	0.566	0.532	0.526	0.538	0.877	0.95	0.974	0.842	0.943	0.335	0.306	0.307	0.374	0.341	0.325	0.346	0.351	0.34	0.321
NCI-H2342	0.316	0.318	0.313	0.264	0.308	1.29	1.04	0.982	1.02	1.07	0.753	0.792	0.707	0.782	0.669	0.703	0.805	0.823	0.728	0.787
NCI-H2347	0.322	0.288	0.327	0.269	0.308	0.954	0.747	1.12	1.11	0.799	0.443	0.39	0.441	0.458	0.446	0.558	0.457	0.428	0.434	0.437
